Results reported in ChEMBL document CHEMBL3039007, “Structure-based identification of OATP1B1/3 inhibitors” (Mol Pharmacol, 2013).
Residues, ends and D or L forms follow the SMILES beside them.

Tests used:
[1] = molecular target: T1, Solute carrier organic anion transporter family member 1B1 (Homo sapiens, UniProt Q9Y6L6); settings: chinese hamster, cho, 10 µM
T1 sequence (Q9Y6L6 whole entry): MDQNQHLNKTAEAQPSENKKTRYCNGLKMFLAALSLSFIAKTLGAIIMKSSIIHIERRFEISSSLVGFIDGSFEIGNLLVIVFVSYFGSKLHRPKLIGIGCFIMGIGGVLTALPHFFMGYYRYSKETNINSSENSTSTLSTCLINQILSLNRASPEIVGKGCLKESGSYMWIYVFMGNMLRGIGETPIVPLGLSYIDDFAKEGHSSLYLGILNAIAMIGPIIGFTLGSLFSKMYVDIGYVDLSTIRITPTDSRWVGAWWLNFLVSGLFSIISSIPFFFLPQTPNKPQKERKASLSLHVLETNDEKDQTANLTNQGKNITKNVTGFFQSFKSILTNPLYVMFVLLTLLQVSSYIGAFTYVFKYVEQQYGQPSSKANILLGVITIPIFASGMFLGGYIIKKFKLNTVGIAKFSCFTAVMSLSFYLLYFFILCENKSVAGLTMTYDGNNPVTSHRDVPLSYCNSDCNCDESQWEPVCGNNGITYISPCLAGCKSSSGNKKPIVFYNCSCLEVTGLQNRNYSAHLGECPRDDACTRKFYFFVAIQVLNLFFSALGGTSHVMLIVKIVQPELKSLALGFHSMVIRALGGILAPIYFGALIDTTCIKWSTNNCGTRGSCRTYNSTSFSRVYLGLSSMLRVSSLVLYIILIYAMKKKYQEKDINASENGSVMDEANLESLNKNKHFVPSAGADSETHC

[2] = molecular target: T2, Solute carrier organic anion transporter family member 1B3 (Homo sapiens, UniProt Q9NPD5); settings: chinese hamster, cho, 10 µM
T2 sequence (Q9NPD5 whole entry): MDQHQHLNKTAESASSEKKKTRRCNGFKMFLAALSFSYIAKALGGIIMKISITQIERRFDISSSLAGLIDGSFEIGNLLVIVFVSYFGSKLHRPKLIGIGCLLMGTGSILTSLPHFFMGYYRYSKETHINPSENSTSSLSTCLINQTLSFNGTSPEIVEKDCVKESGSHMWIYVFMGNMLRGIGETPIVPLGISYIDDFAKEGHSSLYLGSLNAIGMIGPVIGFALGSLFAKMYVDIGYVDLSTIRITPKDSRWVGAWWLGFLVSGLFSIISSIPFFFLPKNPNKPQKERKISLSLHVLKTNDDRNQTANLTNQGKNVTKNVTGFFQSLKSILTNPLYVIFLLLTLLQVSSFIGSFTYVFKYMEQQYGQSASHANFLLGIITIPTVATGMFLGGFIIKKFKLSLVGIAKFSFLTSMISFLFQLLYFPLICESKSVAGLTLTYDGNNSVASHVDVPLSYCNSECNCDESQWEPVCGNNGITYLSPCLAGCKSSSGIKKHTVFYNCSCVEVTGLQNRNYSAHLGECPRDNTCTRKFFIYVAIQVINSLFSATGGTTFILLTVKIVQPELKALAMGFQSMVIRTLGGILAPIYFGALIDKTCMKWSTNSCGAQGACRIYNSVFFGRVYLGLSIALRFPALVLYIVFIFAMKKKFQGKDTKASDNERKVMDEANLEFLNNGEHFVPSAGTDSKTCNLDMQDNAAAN

Structure (SMILES) | residual activity [1] [%] | residual activity [2] [%]
CC(=O)OCC(=O)[C@@]12OC3(CCCC3)O[C@@H]1C[C@H]1[C@@H]3CCC4=CC(=O)C=C[C@]4(C)[C@@]3(F)[C@@H](O)C[C@@]12C [AMCINONIDE] | 35.76 | 56.58
CC(=O)OCC1=C(C(=O)[O-])N2C(=O)[C@@H](NC(=O)Cc3cccs3)[C@H]2SC1.[Na+] [CEPHALOTHIN SODIUM] | 45.11 | 66.3
COC(=O)C[C@H]1C(C)(C)C(=O)[C@H]2CC3=C4CC(OC)O[C@@H](c5ccoc5)[C@@]4(C)CCC3[C@]1(C)C2=O (some centres undefined) [16-DEOXOMEXICANOLIDE 16-METHYL ETHER] | 53.47 | 141.6
Cc1cc(C)nc(NS(=O)(=O)c2ccc(N)cc2)n1 [SULFAMETHAZINE] | 90.46 | 97.37
CNC(=O)Oc1cccc2c1OC(C)(C)O2 [BENDIOCARB] | 88.1 | 84.46
Cc1c(OCC(F)(F)F)ccnc1C[S+]([O-])c1nc2ccccc2[nH]1 (centres undefined) [LANSOPRAZOLE] | 95.47 | 100.5
O=C1O[C@H](CO)[C@@H](O)[C@H](O)[C@H]1O [GLUCONOLACTONE] | 81.83 | 89.12
C/C1=C\CCC(=O)C2CC(C)(C)C2CC1 (centres undefined) [15-NORCARYOPHYLLEN-3-ONE] | 72.07 | 90.82
CC(=O)Nc1ccc(OC(=O)c2ccccc2O)cc1 [ACETAMINOSALOL] | 103.1 | 102.7
CCOC(=O)[N-]c1cn(N2CCOCC2)n[o+]1 [MOLSIDOMINE] | 70.9 | 97.14
CC(=O)O[C@H]1CC[C@@]2(C)C(=CC[C@@H]3[C@@H]2CC[C@]2(C)C(=O)CC[C@@H]32)C1 [DEHYDROEPIANDROSTERONE ACETATE] | 97.61 | 140.4
O=C(Nc1ccccc1)Nc1ccccc1 | 86.66 | 104.3
CC1=NCCc2c1[nH]c1cc(O)ccc21.Cl [HARMALOL HYDROCHLORIDE] | 84.87 | 106.1
Nc1ncnc2c1ncn2[C@@H]1O[C@H](COP(=O)(O)O)[C@@H](O)[C@H]1O [ADENOSINE PHOSPHATE] | 91.52 | 90.72
O=C(CCc1ccc(O)cc1)c1c(O)cc(O)cc1O [PHLORETIN] | 83.5 | 98.4
CC(=O)OCC(=O)[C@@]1(O)CC[C@H]2[C@@H]3CC[C@H]4CC(OC(C)=O)CC[C@]4(C)[C@H]3C(=O)C[C@@]21C (some centres undefined) | 99.36 | 97.61
Nc1ccc(C(=O)O)cc1 [AMINOBENZOIC ACID] | 85.02 | 88.18
CC(C)(O)CC[C@@H](O)[C@](C)(O)[C@H]1CC[C@@]2(O)C3=CC(=O)[C@@H]4C[C@@H](O)[C@@H](O)C[C@]4(C)[C@H]3CC[C@]12C [20-HYDROXYECDYSONE] | 115 | 127.1
C[C@@]12C(=O)OC(=O)[C@]1(C)[C@H]1CC[C@@H]2O1 [CANTHARIDIN] | 102.5 | 105.7
CCC1(CC)C(=O)C=CNC1=O [PYRITHYLDIONE] | 106.5 | 101.3
O=C(O)c1ccccc1C(=O)Nc1ccc(S(=O)(=O)Nc2nccs2)cc1 [PHTHALYLSULFATHIAZOLE] | 115.5 | 107

Structure (SMILES) | residual activity [1] [%] | residual activity [2] [%]
CC(C)[C@H](N)C(=O)N[C@@H](Cc1c[nH]c2ccccc12)C(=O)O [VALYLTRYPTOPHAN] (H-Val-Trp-OH) | 100.2 | 102.8
CC[C@H]1[C@@H]2C[C@H]3[C@@H]4N(C)c5ccccc5[C@]45C[C@@H]([C@@H]2[C@H]5O)N3[C@@H]1O [AJMALINE] | 34.58 | 91.52
CCN(CC)CCNC(=O)c1cc(S(C)(=O)=O)ccc1OC.Cl [TIAPRIDE HYDROCHLORIDE] | 106.2 | 94.93
Cl.N[C@@H]1C[C@H]1c1ccccc1 [TRANYLCYPROMINE HYDROCHLORIDE] | 80.64 | 89.57
CC(C)NCC(O)COc1ccc(CC(N)=O)cc1 (centres undefined) [ATENOLOL] | 78.26 | 93.81
CCN(CC)CCNC(=O)c1cc(Cl)c(N)cc1OC.Cl | 84.82 | 108.2
CCCCCNC(=N)N/N=C/c1c[nH]c2ccc(OC)cc12.O=C(O)/C=C\C(=O)O [TEGASEROD MALEATE] | 73.16 | 112.9
CCN(CC)CCCC(C)Nc1ccnc2cc(Cl)ccc12.O=P(O)(O)O.O=P(O)(O)O (centres undefined) [CHLOROQUINE PHOSPHATE] | 84.34 | 99.18
CC(C)(C)NC[C@H](O)c1ccc(O)c(CO)c1.Cl [LEVALBUTEROL HYDROCHLORIDE] | 95.04 | 85.66
CCCCCC/C=C\CCCCCCCc1cccc(O)c1C(=O)O [GINGKOLIC ACID] | 135.9 | 93.22
CCOc1cccc(C(=O)c2ccc(O)c(O)c2O)c1 | 134.3 | 108.6
C[C@@H]1O[C@@H](O[C@H]2CC[C@]3(C=O)[C@H]4CC[C@]5(C)[C@@H](C6=CC(=O)OC6)CC[C@]5(O)[C@@H]4CC[C@]3(O)C2)[C@H](O)[C@H](O)[C@H]1O [CONVALLATOXIN] | 102.3 | 95.81
COc1ccc2c(c1)OCC(Cc1ccc(OC)c(OC(C)=O)c1)C2=O (centres undefined) [DEOXYSAPPANONE B 7,3'-DIMETHYL ETHER ACETATE] | 122.7 | 148.3
O=C(O)c1cc(-c2ccc(F)cc2F)ccc1O [DIFLUNISAL] | 201 | 87.47
C=C(C)[C@H]1Cc2c(ccc3c(=O)c4c(oc23)COc2cc(OC)c(OC)cc2-4)O1 [DEHYDROROTENONE] | 113.5 | 92.82
Cc1onc(-c2ccccc2Cl)c1C(=O)N[C@@H]1C(=O)N2[C@@H]1SC(C)(C)[C@@H]2C(=O)[O-].O.[Na+] [CLOXACILLIN SODIUM] | 47.3 | 63.22
COP(=S)(OC)SCn1nnc2ccccc2c1=O [GUTHION] | 109.1 | 101.8
CC1(C)CC[C@]2(C(=O)O)CC[C@]3(C)C(=CC[C@@H]4[C@@]5(C)CC[C@H](O)C(C)(C)[C@@H]5CC[C@]43C)[C@@H]2C1 [OLEANOLIC_ACID] | 83.88 | 73.61
CN[C@@H]1[C@H](O[C@H]2[C@H](O[C@H]3[C@H](O)[C@@H](O)[C@H](NC(=N)N)[C@@H](O)[C@@H]3NC(=N)N)O[C@@H](C)[C@]2(O)CO)O[C@@H](CO)[C@H](O)[C@H]1O.CN[C@@H]1[C@H](O[C@H]2[C@H](O[C@H]3[C@H](O)[C@@H](O)[C@H](NC(=N)N)[C@@H](O)[C@@H]3NC(=N)N)O[C@@H](C)[C@]2(O)CO)O[C@@H](CO)[C@H](O)[C@H]1O.O=S(=O)(O)O.O=S(=O)(O)O.O=S(=O)(O)O [DIHYDROSTREPTOMYCIN SULFATE] | 78.79 | 99.04
NC(=O)NC1NC(=O)NC1=O (centres undefined) [ALLANTOIN] | 67.4 | 86.17
C=C1[C@@H]2CC[C@@]3(C)[C@H](c4ccoc4)OC(=O)C[C@]13O[C@H]1CC(=O)C(C)(C)[C@H](CC(=O)OC)[C@]12C [METHYLANGOLENSATE] | 20.27 | 33.7
